This note sets out measurements from patent publication US10890557B2, “Electrochemical biosensor” (I-SENS, INC., priority 2014, dated 2021).

Data set [1] can be described thus: Stability test: UV-visible spectrum change over time in aqueous solution. The data set is classed as physicochemical.
Method: Specifically, the UV-visible spectrum of an aqueous solution of 1 mg of each osmium complex, ruthenium hexamine, and Ferricyanide dissolved in 1 mL of 0.1 M PBS (pH 7.4) was measured and stored at room temperature for 11 days.
On data set [2], the source says:
In subsequent examples, an osmium complex sodium salt was used by substituting the osmium complex with NaOH at 1:3 equivalent ratios.

In data set [3] the test system is FAD-glucose dehydrogenase (FAD-GDH). The format is biochemical. The following applies: pH 7.4. On the procedure:
To verify the electrochemical properties of osmium complex, cyclic voltammetry was performed. Using a carbon electrode as the working electrode, platinum as the auxiliary electrode, and an Ag/AgCl (sat. KCl) electrode as a reference electrode, the current was measured by changing the glucose concentration in a mixed solution including FAD-glucose dehydrogenase (FAD-GDH) 10 mg/mL, osmium complex 30 mmol and 0.1 M PBS (pH 7.4).

As to `N.N.N.N.N.N.[Cl-].[Cl-].[Cl-].[Ru+3]` [ruthenium hexamine, Hexamine ruthenium chloride [Ru(NH3)6Cl3], reference compound], the “UV-visible spectrum change over time” value in data set [1] (1 mg in 1 mL 0.1 M PBS (pH 7.4), room temperature, 11 days) is given as “no change in the UV-visible spectrum was observed over time”.
For the compound Os(dcbpy)2Cl2 [osmium complex], in data set [2], the solubility in water result is reported as “low solubility in water”. In addition, the response slope in data set [3] was 77.1 nA/(mg/dL). The “UV-visible spectrum change over time” value in data set [1] (pH 7.4) is “the absorbance of absorption peaks at 400 nm and 520 mm decreased with time”.
